# From patent publication US9540325B2, “N1-cyclic amine-N5-substituted phenyl biguanide derivatives, methods of preparing the same and pharmaceutical composition comprising the same” (Immunomet Therapeutics, Inc., priority 2011, dated 2017)
# Experiments:
# [1] = test system: AMPKα; experiment: Measurement of AMPK activation effect (AMPKα Thr172 phosphorylation immunoassay) in MCF7 cells; type: cell-based, human; conditions: 24 hours; for AMPK activation effect at 10 μM (%) / AMPK activation effect at 50 μM (%): relative to untreated cells; for AMPK activation effect AC150: concentration at which AMPK activation reached 150%
# Experimental: MCF7 cells derived from human breast cancer cells (commercially available from the Korean Cell Line Bank) were used, and the AMPK activation effect of the biguanide derivative was confirmed using an AMPKα immunoassay kit (Invitrogen, Catalog No. KHO0651).
# MCF7 cells were cultured in a DMEM medium supplemented with 10% fetal bovine serum. Thereafter, the cultured MCF7 cells were put into a 6-well plate with approximately 5×10^5 cells per well and cultured in an incubator supplied with 5% CO2. Culture media were treated with the derivatives synthesized in the examples at contents of 5, 10 and 50 μM, and then cultured for 24 hours. Metformin hydrochloride was used as the control, and the culture media were treated with 0.05, 0.5, 1, 2, 5 and 10 mM metformin hydrochloride, and then tested in the same manner as described in the derivatives synthesized in the examples. Subsequently, the cells were lysed according to a method presented in the operation manual of the AMPKα immunoassay kit, and 20 μg of a cell lysate was then yielded through protein assay. Thereafter, the AMPK activation effect was obtained by determining the degree of phosphorylation of 172nd threonine residue (Thr172) of the AMPKα from the cell lysate according to the method presented in the operation manual of the AMPKα immunoassay kit. […] A curve graph showing AMPK activation according to the concentration of the treated compounds was plotted based on the obtained AMPKα activation results, the concentration (activation concentration 150, AC150) value of the compound whose AMPK activation reached 150% was calculated using a GraphPad Prism 5.0 program, and the degrees of AMPK activation were obtained when concentrations of the treated biguanide derivatives were 10 μM and 50 μM and the metformin hydrochloride was 50 μM
# [2] = test system: HCT116 cells; experiment: Measurement of effect of inhibiting cancer cell proliferation (MTT); type: cell-based, human; conditions: Homo sapiens; for inhibition at 100 µM: HCT-116, 100 μM, 48 hours, read-out: Cell Growth Inhibition (%) at 100 μM; for GI50: HCT-116, 48 h
# Excerpt: HCT116 cells derived from human colorectal cancer (commercially available from the Korean Cell Line Bank) were used, and the effect of inhibiting cancer cell proliferation of the biguanide derivative was confirmed by measuring the concentration value (cell growth inhibition concentration, GIC50) at which cell growth was inhibited by 50% using a 3-(4,5-dimethylthiazol-2-yl)-2,5-diphenyltetrazolium bromide (MTT) reagent.
# First, HCT116 cells were put on a 96-well plate and cultured in a DMEM medium containing 10% fetal bovine serum for 16 hours so that the cellcount in each well was approximately 5,000. Subsequently, to obtain the GIC50 value of each compound, culture media were treated with 100 μM, 25 μM, 6.25 μM, 1.56 μM or 0.39 μM of the compound, and then cultured for 48 hours. Metformin hydrochloride was used as the control, and the culture media were treated with 25, 12.5, 2.5, 0.5, 0.1 mM metformin hydrochloride, and then tested in the same manner as described in the derivatives synthesized in the examples. In order to determine whether the cells survived after treatment with the compounds, MTT was added to the culture media which were then cultured for another 3 hours. Formed formazane crystals were dissolved using dimethyl sulfoxide (DMSO), and the absorbance of the resulting solution was measured at 560 nm. After the 48-hour culture, […] was indicated as cell viability (%) according to each treated concentration. A cell viability curve graph was plotted and the concentration (GIC50) value of the compound at which the growth was inhibited by 50% was calculated to confirm the inhibition effect of cancer cell proliferation. Also, the cell growth viability (%) when the concentration of the treated biguanide derivative and the metformin hydrochloride as the control were 100 μM was shown.
Structure (SMILES),GI50 [2] [µM],melting point [°C],AMPK activation effect at 10 μM (%) [1] [%],AMPK activation effect AC150 [1] [µM],inhibition at 100 µM [2] [%],AMPK activation effect at 50 μM (%) [1] [%]
"Cl.N=C(NC(=N)N1CCCCC1)Nc1cc(Cl)cc(Cl)c1 [Example 61, N1-piperidine-N5-(3,5-dichloro)phenyl biguanide hydrochloride]",7.1,230 to 231,239,3.3,97.7,
"Cl.N=C(NC(=N)N1CCCC1)Nc1ccc(Cl)cc1 [Example 17, N1-pyrrolidine-N5-(4-chloro)phenyl biguanide hydrochloride]",48.2,260 to 261,167,8.4,97.4,512
"Cl.N=C(NC(=N)N1CCCC1)Nc1cccc(C(F)(F)F)c1 [Example 23, N1-pyrrolidine-N5-(3-trifluoromethyl)phenyl biguanide hydrochloride]",38.9,286 to 287,199,4.4,97.6,578
"Cl.N=C(NC(=N)N1CCCCC1)Nc1ccc(Cl)c(OC(F)(F)F)c1 [Example 51, N1-piperidine-N5-(4-chloro-3-trifluoromethoxy)phenyl biguanide hydrochloride]",1.9,251 to 252,160,7.8,96.3,
"Cl.N=C(NC(=N)N1CCCCC1)Nc1ccc(-c2nnn[nH]2)cc1 [Example 40, N1-piperidine-N5-(4-(1H-tetrazole-5-yl))phenyl biguanide hydrochloride]",> 100,241 to 242,41,>50,0.9,55
"Cl.N=C(NC(=N)N1CCCCC1)Nc1cccc(N)c1 [Example 36, N1-piperidine-N5-(3-amino)phenyl biguanide hydrochloride]",> 100,220 to 222,62,36.8,43.6,175
"Cl.N=C(NC(=N)N1CCCCC1)Nc1ccc(F)c(C(F)(F)F)c1 [Example 46, N1-piperidine-N5-(4-fluoro-3-trifluoromethyl)phenyl biguanide hydrochloride]",5.6,269 to 270,261,1.3,97,
"Cl.N=C(NC(=N)N1CCCCC1)Nc1ccc(Cl)c(Cl)c1 [Example 64, N1-piperidine-N5-(3,4-dichloro)phenyl biguanide hydrochloride]",6.4,267 to 269,442,0.7,101,
"Cl.N=C(NC(=N)N1CCCCC1)Nc1ccc(F)c(F)c1 [Example 59, N1-piperidine-N5-(3,4-difluoro)phenyl biguanide hydrochloride]",28.1,257 to 258,269,3.6,97.8,1036
"COc1cc(NC(=N)NC(=N)N2CCCCC2)cc(OC)c1.Cl [Example 45, N1-piperidine-N5-(3,5-dimethoxy)phenyl biguanide hydrochloride]",> 100,234 to 236,232,2.7,41.3,249
"Cc1cccc(NC(=N)NC(=N)N2CCCCC2)c1.Cl [Example 9, N1-piperidine-N5-(3-methyl)phenyl biguanide hydrochloride]",13.4,239 to 240,149,12.4,79.1,255

# Now from value to compound, other results behind:
GI50 [2] [µM],melting point [°C],Structure (SMILES),AMPK activation effect at 10 μM (%) [1] [%],AMPK activation effect AC150 [1] [µM],inhibition at 100 µM [2] [%],AMPK activation effect at 50 μM (%) [1] [%]
> 100,269 to 270,"Cl.N=C(NC(=N)N1CCCCC1)Nc1ccc(F)cc1 [Example 14, N1-piperidine-N5-(4-fluoro)phenyl biguanide hydrochloride]",204,4.0,49.7,429
5.9,264 to 266,"Cl.N=C(NC(=N)N1CCCCC1)Nc1cccc(OC(F)(F)F)c1 [Example 29, N1-piperidine-N5-(3-trifluoromethoxy)phenyl biguanide hydrochloride]",400,1.1,98,
> 100,225 to 227,"Cl.N=C(NC(=N)N1CCCCC1)Nc1cccc(CO)c1 [Example 12, N1-piperidine-N5-(3-hydroxymethyl)phenyl biguanide hydrochloride]",107,>50,17.6,149
17,275 to 276,"Cl.N=C(NC(=N)N1CCCCC1)Nc1ccc(Cl)cc1 [Example 18, N1-piperidine-N5-(4-chloro)phenyl biguanide hydrochloride]",281,3.4,97.7,
7,263 to 264,"Cl.N=C(NC(=N)N1CCCCC1)Nc1cccc(Br)c1 [Example 7, N1-piperidine-N5-(3-bromo)phenyl biguanide hydrochloride]",526,0.9,97.2,
27.3,225 to 227,"CCc1cccc(NC(=N)NC(=N)N2CCCCC2)c1.Cl [Example 10, N1-piperidine-N5-(3-ethyl)phenyl biguanide hydrochloride]",178,7.3,97.4,598
> 100,264 to 265,"Cl.N=C(NC(=N)N1CCOCC1)Nc1cccc(Br)c1 [Example 22, N1-morpholine-N5-(3-bromo)phenyl biguanide hydrochloride]",127,2.3,44.5,119
3.9,260 to 261,"Cl.N=C(NC(=N)N1CCCCC1)Nc1ccc(F)c(OC(F)(F)F)c1 [Example 50, N1-piperidine-N5-(4-fluoro-3-trifluoromethoxy)phenyl biguanide hydrochloride]",127,>50,97,
